Assays:
[1] = test system: IL-17AF; assay: TH17 cytokine inhibition measured by ELISA (IL-17AF); format: cell-based; conditions: 120 h; human TH17 cells, 5 days differentiation, ELISA of supernatants, 0.1% DMSO
Description: (§1) Peripheral blood mononuclear cells (PBMCs) were sourced from freshly prepared leukocyte enriched plasma (buffy coat) from healthy volunteers from which PBMCs were isolated by density gradient centrifugation using Ficoll-Paque™ PLUS (GE Healthcare). Naïve CD4+ T cells were isolated using the Naïve CD4+ T cell Isolation Kit II (Miltenyi Biotec) as per manufacturer's instructions. CD4+ T cells were plated at 5×10^4 cells/well in 96 well plates pre-coated with immobilized human (h)-αCD3 antibody (eBioscience) then differentiated to TH17 cells using h-αCD28, h-αIFN-γ, h-αIL-4, h-IL-6, h-IL-23, h-IL-1β, h-TGF-β1 (eBioscience) and maintained in a cell culture incubator at 37° C. with 5% CO2 in TexMACS Medium (Miltenyi Biotec) supplemented with 1% Penicillin/Streptomycin (Lonza) over 5 days.
(§2) Human CD4+ T cells were differentiated to TH17 cells as described in the presence or absence of various concentrations of compounds in a final concentration of 0.1% DMSO in TexMACS medium. Supernatants were collected and stored at −20° C. until they were to be assayed for IL-17A, IL-17F, IL-17AF, IL-21 and/or IL-22 levels as determined by Ready-Set-Go ELISA kits (eBioscience) as per manufacturer's instructions. Endpoint absorbance was read at 450 nm and 570 nm according to manufacturer's instructions (eBioscience) using a microplate reader (Perkin Elmer). The percentage of cytokine inhibition was calculated with reference to DMSO treated cells and the IC50s were determined by GraphPad Prism software and presented in the table below.

[2] = test system: IL-21; assay: TH17 cytokine inhibition measured by ELISA (IL-21); format: cell-based; conditions: 120 h; human TH17 cells, 5 days differentiation, ELISA of supernatants, 0.1% DMSO
Description: as §1, §2

[3] = test system: IL-21; assay: Real-Time qRT-PCR gene expression in TH17 cells (IL-21); format: cell-based, human; parameters: key: A: No change in gene expression observed relative to DMSO treated Th17 cells; B: Decreased gene expression observed relative to DMSO treated Th17 cells; C: Increased gene expression observed relative to DMSO treated Th17 cells; conditions: normalized to six reference genes
Description: as §1
(§3) RNA was isolated from TH17 cells and cDNA was synthesized using the Verso cDNA kit (Thermo Scientific) as per manufacturer's instructions. IL-17A, IL-17F, IL-21, IL-22, G-CSF, IL-23R and FOXP3 gene expression were determined for compound treated and untreated TH17 cell samples using Solaris qPCR Gene expression assays (Thermo Scientific) with an iCycler iQ Real-Time PCR Detection System (Bio-Rad). Individual gene expression was normalized to a panel of six reference genes (ACTB, TBP, HPRT1, PGK1, TFRC and PPIA) (Thermo Scientific) and analyzed by REST 2009 (Qiagen) in accordance to MIQE guidelines (Bustin et al. (2009) Clin. Chem, 55:611-622). The effects of compounds on TH17 cytokine gene expression are presented as fold change in mRNA levels of compound treated TH17 cells relative to DMSO treated cells in the table below.

[4] = test system: FOXP3; assay: Real-Time qRT-PCR gene expression in TH17 cells (FOXP3); format: cell-based, human; parameters: key: A: No change in gene expression observed relative to DMSO treated Th17 cells; B: Decreased gene expression observed relative to DMSO treated Th17 cells; C: Increased gene expression observed relative to DMSO treated Th17 cells; conditions: normalized to six reference genes
Description: as §1, §3

| SMILES | IC50 [1] [µM] | IC50 [2] [µM] | Fold change in mRNA levels of compound treated TH17 cells relative to DMSO treated cells, IL-21 [3] | Fold change in mRNA levels of compound treated TH17 cells relative to DMSO treated cells, FOXP3 [4] |
| --- | --- | --- | --- | --- |
| Cc1n[nH]c(-c2ccc3c(c2)CCCN3Cc2ccc(C(O)(C(F)(F)F)C(F)(F)F)cc2)n1 [Example 3, 1,1,1,3,3,3-hexafluoro-2-(4-((6-(3-methyl-1H-1,2,4-triazol-5-yl)-3,4-dihydroquinolin-1(2H)-yl)methyl)phenyl)propan-2-ol] | < 10 | < 10 | B | A |
| Cc1cc(-c2ccc3c(c2)CCC(=O)N3Cc2ccc(C(O)(C(F)(F)F)C(F)(F)F)cc2)[nH]n1 [Example 4, 1-(4-(1,1,1,3,3,3-hexafluoro-2-hydroxypropan-2-yl)benzyl)-6-(3-methyl-1H-pyrazol-5-yl)-3,4-dihydroquinolin-2(1H)-one] | – | – | B | A |
| Cc1n[nH]c(-c2ccc3c(c2)CCC(=O)N3Cc2ccc(C(O)(C(F)(F)F)C(F)(F)F)cc2)n1 [Example 6, 1-(4-(1,1,1,3,3,3-hexafluoro-2-hydroxypropan-2-yl)benzyl)-6-(3-methyl-1H-1,2,4-triazol-5-yl)-3,4-dihydroquinolin-2(1H)-one] | – | – | A | C |

Continued, in another order:

| IC50 [1] [µM] | IC50 [2] [µM] | SMILES | Fold change in mRNA levels of compound treated TH17 cells relative to DMSO treated cells, IL-21 [3] | Fold change in mRNA levels of compound treated TH17 cells relative to DMSO treated cells, FOXP3 [4] |
| --- | --- | --- | --- | --- |
| < 10 | < 10 | Cc1cc(-c2ccc3c(c2)CCCN3Cc2ccc(C(O)(C(F)(F)F)C(F)(F)F)cc2)[nH]n1 [Example 1, 1,1,1,3,3,3-hexafluoro-2-(4-((6-(3-methyl-1H-pyrazol-5-yl)-3,4-dihydroquinolin-1(2H)-yl)methyl)phenyl)propan-2-ol] | B | C |
| < 10 | < 10 | OC(c1ccc(CN2CCCc3cc(-c4cn[nH]c4)ccc32)cc1)(C(F)(F)F)C(F)(F)F [Example 2, 2-(4-((6-(1H-pyrazol-4-yl)-3,4-dihydroquinolin-1(2H)-yl)methyl)phenyl)-1,1,1,3,3,3-hexafluoropropan-2-ol] | B | C |
| < 10 | < 10 | O=C1CCc2cc(-c3cn[nH]c3)ccc2N1Cc1ccc(C(O)(C(F)(F)F)C(F)(F)F)cc1 [Example 5, 1-(4-(1,1,1,3,3,3-hexafluoro-2-hydroxypropan-2-yl)benzyl)-6-(1H-pyrazol-4-yl)-3,4-dihydroquinolin-2(1H)-one] | A | A |

From patent publication US9447069B2, “ROR modulators and their uses” (INNOV17 LLC, priority 2012, dated 2016)
